Source: PubChem BioAssay AID1322 (NMMLSC, 2008)
Calls of active or inactive are those of the source. No rule for the calls is given here.

Biological target: Bcl-2-like protein 1 (Homo sapiens) (UniProt Q07817)
Experiment: Bcl-XL binding to Bim peptide disruption – biochemical, multiplexed, bead flow cytometry, human Bcl-XL, dose response (AID 1322); as to inhibition: test concentration not given here
Settings: Bead-based flow cytometry, MCF; for inhibition: stronger effect = higher value

Chain of Bcl-2-like protein 1 (Homo sapiens) (Q07817 whole entry, looked up): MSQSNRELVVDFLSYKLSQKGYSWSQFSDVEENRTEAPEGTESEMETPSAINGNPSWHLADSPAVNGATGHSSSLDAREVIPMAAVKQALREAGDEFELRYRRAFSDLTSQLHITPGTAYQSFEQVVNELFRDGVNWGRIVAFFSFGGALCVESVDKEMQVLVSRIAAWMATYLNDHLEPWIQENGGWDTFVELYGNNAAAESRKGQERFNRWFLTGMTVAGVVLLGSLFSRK

CC(CCc1ccccc1)NC(=O)C1CCN(S(=O)(=O)N2CCCCC2)CC1 (stereo not drawn)
inhibition: inactive

O=C1Nc2ccc([N+](=O)[O-])cc2OC1CCN1CCN(Cc2ccc3c(c2)OCO3)CC1 (stereo not drawn)
outcome: inactive

Clc1nc2ccccc2cc1/C=N/Nc1nc2ccccc2[nH]1
EC50: inactive

Cc1cc(C(=O)NCCCN(C)C)c2ccccc2n1
inhibition: inactive

Cc1ccc(NC(=O)CC2S/C(=N/N=C/c3c[nH]c4ccccc34)NC2=O)cc1 (stereo not drawn)
inhibition: inactive

COc1ccc(NC(=O)c2ccc(CN3CCN(c4ccccc4)CC3)cc2)cc1
inhibition: inactive

COc1cccc(/C=N/NC(=O)c2cc3cc([N+](=O)[O-])ccc3s2)c1O
inhibition: inactive

CNC(=S)N/N=C/C1=CCC2CC1C2(C)C (stereo not drawn)
inhibition: inactive

Cc1ccc(CC(=O)OCCNC(=O)c2cccnc2)cc1
inhibition: inactive

CN1CCN(c2ccc(N)cc2)CC1
inhibition: inactive

O=C(Nc1nnc(SCc2ccccn2)s1)C1CC(=O)N(c2ccccc2)C1 (stereo not drawn)
inhibition: inactive

COc1ccc(/C=C(/C(=O)c2cccs2)N2C=CC=CC2=C(C#N)C#N)cc1
inhibition: inactive

CCOC(=O)C1CCN(C(=O)Nc2ccc3nc(-c4ccco4)c(-c4ccco4)nc3c2)CC1
inhibition: inactive

OCCC1CN(Cc2ccc3ncccc3c2)CCN1Cc1ccccc1 (stereo not drawn)
outcome: inactive

N#Cc1ccc(N=c2ssnc2Cl)cc1
inhibition: inactive

COc1cccc2c(SCC(=O)N/N=C/c3ccc(O)c(O)c3)cc(C)nc12
inhibition: inactive

C/C(=C\c1ccco1)C1Nc2cccc3cccc(c23)N1
inhibition: inactive

Cc1cc(NC(=O)CCCC(=O)NCc2ccccc2)no1
inhibition: inactive

COc1ccc(C2(NC(C)=O)CCN(C(=O)c3ccco3)CC2)cc1
inhibition: inactive

O=C(NCc1ccccn1)c1ccc2nc(-c3ccco3)c(-c3ccco3)nc2c1
inhibition: inactive

CCN(CC)c1ccc(NC(=O)COc2ccccc2C)cc1S(=O)(=O)Nc1ccccc1OC
inhibition: inactive

CCOc1ccccc1CNc1ccc(O)cc1
outcome: inactive

Cc1ccc(Nc2nc(CSc3nnc(-c4cccnc4)n3-c3ccccc3C)cs2)cc1
inhibition: inactive

CC(C(=O)Nc1cc([N+](=O)[O-])ccc1Cl)N1CCN(c2ccc(O)cc2)CC1 (stereo not drawn)
outcome: inactive

CN(C)C(Cc1ccccc1)C(=O)c1cccs1 (stereo not drawn)
outcome: inactive

C/C(=N\NC(=O)COc1ccc(C(C)(C)C)cc1)c1ccc2c(c1)OCCO2
inhibition: inactive

COc1cccc(N2CC(C(=O)Nc3nnc(SCC(=O)c4ccccc4)s3)CC2=O)c1 (stereo not drawn)
inhibition: inactive

COc1ccc(N=C2NC(=O)/C(=C\C=C\c3ccco3)S2)cc1
inhibition: inactive

S=C(Nc1ccc(N2CCOCC2)cc1)Nc1ccc2nc(-c3ccco3)c(-c3ccco3)nc2c1
inhibition: inactive

COc1ccc(-c2csc(NC(=O)/C(N=Nc3ccccc3)=C(\C)O)n2)cc1
outcome: inactive

Cc1ccc(-c2n[nH]c(=S)n2-c2ccccc2)cc1
inhibition: inactive

Brc1ccc2ncnc(Nc3ccc(N4CCOCC4)cc3)c2c1
inhibition: inactive

Cc1cccc(-n2c(O)c(/C=N/N3CCOCC3)c(=O)[nH]c2=S)c1
inhibition: inactive

COc1cc2[nH]c(=S)nc(NCCCOC(C)C)c2cc1OC
inhibition: inactive

COc1ccc(CC(=O)Nc2ccc(C(=O)Nc3nccs3)cc2)cc1OC
inhibition: inactive

Cc1nc2scc(-c3ccccc3)c2c(=O)n1N=C1C=CC(=O)C=C1
inhibition: inactive

O=C(NCCO)c1ccc2nc(-c3ccco3)c(-c3ccco3)nc2c1
inhibition: inactive

COc1ccc(OC)c(-n2c(-c3ccc(C)cc3)n[nH]c2=S)c1
inhibition: inactive

O=C(C[n+]1ccc(-c2nnc3n2CCC3)cc1)c1ccc(Cl)c(Cl)c1
inhibition: inactive

CCOC(=O)C1=C(Cc2ccc(C)cc2)C(=O)c2ccccc2C1=O
inhibition: inactive

Cc1ccc(-c2cc(-c3ccc(Cl)cc3)c(C#N)c(N)n2)o1
inhibition: inactive

CN(C)[C@@H]1C(=O)C(C(=O)NCN2CCCC2)=C(O)[C@@]2(O)C(=O)C3=C(O)c4c(O)cccc4[C@@](C)(O)C3CC12 (stereo partly drawn)
inhibition: inactive

Cc1ccc(-c2cc(C(=O)Nc3cccnc3)c3ccccc3n2)o1
inhibition: inactive

C#CCOCCOCCOCCNc1nc(N2CCN(C(=O)[C@H](CCCCN)n3cc(CCCC)nn3)CC2)nc(N2CCN(C(=O)[C@H](Cc3ccc(O)cc3)n3cc(CCO)nn3)CC2)n1
inhibition: inactive

CSc1nnc2ccc(-c3cccs3)nn12
inhibition: inactive

COc1ccc(-n2c(SCC(=O)Nc3ccc(C(=O)O)cc3)nnc2-c2cccs2)cc1
inhibition: inactive

Cc1csc(SCCn2c(N3CCN(c4ccccc4)CC3)nc3c2c(=O)[nH]c(=O)n3C)n1
inhibition: inactive

Cc1ccccc1OCC(=O)N/N=C/c1ccccn1
inhibition: inactive

COc1ccc(NC(=O)/C(C#N)=C/c2c(C)nn(-c3ccc(F)cc3)c2Cl)cc1Cl
inhibition: inactive

CCCCN(C(=O)CCC(=O)Nc1cc(C)on1)C(C(=O)NC(C)(C)C)c1cccc(OC)c1OC (stereo not drawn)
inhibition: inactive

Cc1ccc(/C=C/C(=O)c2ccccc(=O)c2O)cc1C
inhibition: inactive

CC(C)(C)OC(=O)N1CCN(C(=O)[C@H](Cc2ccc(O)cc2)n2cc(CCO)nn2)CC1
inhibition: inactive

C/C(=N\NC(=O)Cc1cccn1C)c1ccc2ccccc2c1
inhibition: inactive

Cc1ccc(NN2C(=O)C=CC2=O)cc1
outcome: inactive

CC(C)(C)NC(=O)COc1ccc(CNc2ccc3[nH]c(=O)[nH]c3c2)cc1
inhibition: inactive

CCn1c(SCC(=O)Nc2ccc(C)cc2)nnc1-c1ccc(O)cc1
inhibition: inactive

CCOC(=O)CSC1=NC(=O)/C(=C/c2ccc(OC)cc2)S1
inhibition: inactive

CCOc1cc(CNc2ccc(N(C)C)cc2)cc(Br)c1OCC(=O)NC(C)(C)C
inhibition: inactive

O=C(CSc1nnc(Cc2ccccc2)o1)NCc1ccco1
inhibition: inactive

COc1cccc(/C=C2/SC(=O)N(C)C2=O)c1OCc1ccc(C(=O)O)cc1
inhibition: inactive

COc1ccc2cc(CN(CCc3ccccc3)Cc3nnnn3CC3CCCO3)c(=O)[nH]c2c1 (stereo not drawn)
inhibition: inactive

O=C1NC(=S)S/C1=C/c1ccc(N2CCOCC2)o1
inhibition: inactive

COc1ccc(S(=O)(=O)NCCSc2ccc(Cl)cc2)cc1OC
inhibition: inactive

COC(=O)c1ccc(-n2nnnc2SCC(=O)Nc2cc(OC)ccc2OC)cc1
inhibition: inactive

O=C(CSc1nnc(-c2ccccc2)c(-c2ccccc2)n1)N1CCc2ccccc21
inhibition: inactive

COc1ccc(-c2nnc(SCC(=O)Nc3nc4ccccc4s3)n2C)cc1
inhibition: inactive

COCCN=c1scc(-c2ccco2)n1/N=C/c1ccc(O)c(O)c1O
outcome: inactive

CN(C)c1ccc(/C=C2/SC(=O)N(CCN=C3NS(=O)(=O)c4ccccc43)C2=O)cc1
inhibition: inactive

COc1ccc(COC(=O)NNC(=O)c2ccccc2Cl)cc1
inhibition: inactive

Cn1cc(CN2C[C@]3(C)C[C@H]2CC(C)(C)C3)c(-c2ccc3c(c2)OCCO3)n1
outcome: inactive

COc1cc(NC(=S)NCCCO)c(OC)cc1Cl
inhibition: inactive

Cc1ccccc1-n1c(SCc2cccc(F)c2)nc2[nH]ncc2c1=O
outcome: inactive

O=C(COCC(=O)NCc1ccccc1)NCc1ccccc1
inhibition: inactive
